From patent US20110053773A1, “METHODS OF IMPROVING NUTRITIONAL VALUE OF PLANTS” (UNIVERSITY OF TENNESSEE RESEARCH FOUNDATION, priority 2009, published 2011)

How the values were obtained:
kale 'Red Russian' [1] = assay: Visual injury of kale after insecticide, fungicide, PGRs, safeners (Example 4)
How it was run: (§1)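 Plants received postemergence sprays of one insecticide, one fungicide, two PGRs or two safeners in the greenhouse. About 4 weeks later they were harvested, and replicates were pooled for laboratory content analysis. Injury was rated visually on a 0–100% scale.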

kale ‘Red Russian’ = assay: Yield, fresh weight of kale after insecticide, fungicide and PGRs (Example 4, Table 12); type: in vivo; conditions: 28 DA-A, Untreated Check 106.9
How it was run: (§2)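 Greenhouse postemergence applications of chlorpyrifos, chlorothalonil, mepiquat-chloride, paclobutrazol, napthalic anhydride or isoxadifen-ethyl. Visual injury (phytotoxicity, chlorosis, stunting) scored 0–100%, 0 = no response, 100 = plant death. Harvest about 4 weeks after treatment; replicates pooled for protein, mineral, amino acid, fiber and fatty acid analysis.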

basil 'Genovese' [2] = assay: Content analysis of basil: protein, minerals (Example 4, Tables 10-11); type: in vivo; conditions: 28 DA-A
How it was run: as §2

basil 'Genovese' [3] = assay: Visual injury of basil after insecticide, fungicide, PGRs, safeners (Example 4)
How it was run: as §1

kale 'Red Russian' [4] = assay: Content analysis of kale: protein, amino acids, fiber, fatty acids, minerals (Example 4, Tables 12-14); type: in vivo; conditions: 28 DA-A; for Alanine, Percent Increase over the Untreated Check (on a % dry matter basis) / Aspartic acid, Percent Increase over the Untreated Check (on a % dry matter basis) / Cysteine, Percent Increase over the Untreated Check (on a % dry matter basis) / Glutamic acid, Percent Increase over the Untreated Check (on a % dry matter basis) / Glycine, Percent Increase over the Untreated Check (on a % dry matter basis) / Iso-leucine, Percent Increase over the Untreated Check (on a % dry matter basis) / Leucine, Percent Increase over the Untreated Check (on a % dry matter basis) / Lysine, Percent Increase over the Untreated Check (on a % dry matter basis) / Methionine, Percent Increase over the Untreated Check (on a % dry matter basis) / Proline, Percent Increase over the Untreated Check (on a % dry matter basis) / Threonine, Percent Increase over the Untreated Check (on a % dry matter basis) / Total Amino acids, Percent Increase over the Untreated Check (on a % dry matter basis) / Total Protein, Percent Increase over the Untreated Check (on a % dry matter basis) / Valine, Percent Increase over the Untreated Check (on a % dry matter basis): chlorothalonil ###
How it was run: as §1

basil ‘Genovese’ = assay: Yield, fresh weight of basil after insecticide, fungicide, PGRs and safeners (Example 4, Table 10); type: in vivo; conditions: DA-A, check 31.8
How it was run: as §2

[5] = 7 DA-A, rates g ai/ha: chlropyrifos 1120, chlorothalonil 2630, paclobutrazol 3.23, mepiquat-chloride 12.3, + NIS 0.25 % v/v
[6] = 7 DA-A, rates g ai/ha: chlropyrifos 3370, chlorothalonil 7900, paclobutrazol 9.7, mepiquat-chloride 37, + NIS 0.25 % v/v
[7] = 14 DA-A, rates g ai/ha: chlropyrifos 1120, chlorothalonil 2630, paclobutrazol 3.23, mepiquat-chloride 12.3, + NIS 0.25 % v/v
[8] = 14 DA-A, rates g ai/ha: chlropyrifos 3370, chlorothalonil 7900, paclobutrazol 9.7, mepiquat-chloride 37, + NIS 0.25 % v/v
[9] = 28 DA-A, rates g ai/ha: chlropyrifos 1120, chlorothalonil 2630, paclobutrazol 3.23, mepiquat-chloride 12.3, + NIS 0.25 % v/v
[10] = 28 DA-A, rates g ai/ha: chlropyrifos 3370, chlorothalonil 7900, paclobutrazol 9.7, mepiquat-chloride 37, + NIS 0.25 % v/v
[11] = rates g ai/ha: chlropyrifos 1120, chlorothalonil 2630, paclobutrazol 3.23, mepiquat-chloride 12.3, + NIS 0.25 % v/v
[12] = rates g ai/ha: chlropyrifos 3370, chlorothalonil 7900, paclobutrazol 9.7, mepiquat-chloride 37, + NIS 0.25 % v/v
[13] = rates g ai/ha: chlroprifos 3370, chlorothalonil 7900, paclobutrazol 9.7, mepiquat-chloride 37, Isoxadifen 16, Napthalic anhydride 527, + NIS 0.25 % v/v
[14] = rates g ai/ha: chlropyrifos 1120, chlorothalonil 2630, paclobutrazol 3.23, mepiquat-chloride 12.3, Isoxadifen 8, Napthalic anhydride 264, + NIS 0.25 % v/v
[15] = 7 DA-A, rates g ai/ha: chlropyrifos 1120, chlorothalonil 2630, paclobutrazol 3.23, mepiquat-chloride 12.3, Isoxadifen 8, Napthalic anhydride 264, + NIS 0.25 % v/v
[16] = 7 DA-A, rates g ai/ha: chlropyrifos 3370, chlorothalonil 7900, paclobutrazol 9.7, mepiquat-chloride 37, Isoxadifen 16, Napthalic anhydride 527, + NIS 0.25 % v/v
[17] = 14 DA-A, rates g ai/ha: chlropyrifos 1120, chlorothalonil 2630, paclobutrazol 3.23, mepiquat-chloride 12.3, Isoxadifen 8, Napthalic anhydride 264, + NIS 0.25 % v/v
[18] = 14 DA-A, rates g ai/ha: chlropyrifos 3370, chlorothalonil 7900, paclobutrazol 9.7, mepiquat-chloride 37, Isoxadifen 16, Napthalic anhydride 527, + NIS 0.25 % v/v
[19] = 28 DA-A, rates g ai/ha: chlropyrifos 1120, chlorothalonil 2630, paclobutrazol 3.23, mepiquat-chloride 12.3, Isoxadifen 8, Napthalic anhydride 264, + NIS 0.25 % v/v
[20] = 28 DA-A, rates g ai/ha: chlropyrifos 3370, chlorothalonil 7900, paclobutrazol 9.7, mepiquat-chloride 37, Isoxadifen 16, Napthalic anhydride 527, + NIS 0.25 % v/v
[21] = first-listed rate g ai/ha: chlropyrifos ###, paclobutrazol 3.2, mepiquat-chloride 12, + NIS 0.3 % v/v
[22] = second-listed rate g ai/ha: chlropyrifos ###, paclobutrazol 9.7, mepiquat-chloride 37, + NIS 0.3 % v/v

## C[N+]1(C)CCCCC1 [mepiquat-chloride]
Kale 'Red Russian' [1]; [5]
  Phytotoxicity Chlorosis: 0%
  Phytotoxicity General: 9%
  Phytotoxicity Stunting: 4%
Kale 'Red Russian' [1]; [6]
  Phytotoxicity Chlorosis: 0%
  Phytotoxicity General: 10%
  Phytotoxicity Stunting: 1%
Kale 'Red Russian' [1]; [7]
  Phytotoxicity Chlorosis: 15%
  Phytotoxicity General: 1%
  Phytotoxicity Stunting: 16%
Kale 'Red Russian' [1]; [8]
  Phytotoxicity Chlorosis: 4%
  Phytotoxicity General: 0%
  Phytotoxicity Stunting: 3%
Kale 'Red Russian' [1]; [9]
  Phytotoxicity Chlorosis: 6%
  Phytotoxicity General: 1%
  Phytotoxicity Stunting: 9%
Kale 'Red Russian' [1]; [10]
  Phytotoxicity Chlorosis: 3%
  Phytotoxicity General: 3%
  Phytotoxicity Stunting: 10%
Kale ‘Red Russian’; [11]
  Yield Fresh weight: 101.8 grams
Kale ‘Red Russian’; [12]
  Yield Fresh weight: 101.2 grams
Basil 'Genovese' [2]; [13]
  ADF, Percent Increase Over the Untreated Check (on a % dry matter basis): −9 % check
  Calcium, Percent Increase Over the Untreated Check (on a % dry matter basis): 2 % check
  Copper, Percent Increase Over the Untreated Check (on a % dry matter basis): −8 % check
  Iron, Percent Increase Over the Untreated Check (on a % dry matter basis): 6 % check
  Magnesium, Percent Increase Over the Untreated Check (on a % dry matter basis): 16 % check
  Manganese, Percent Increase Over the Untreated Check (on a % dry matter basis): 61 % check
  NDF, Percent Increase Over the Untreated Check (on a % dry matter basis): −11 % check
  Phosphorous, Percent Increase Over the Untreated Check (on a % dry matter basis): 26 % check
  Potassium, Percent Increase Over the Untreated Check (on a % dry matter basis): −3 % check
  Protein, Percent Increase Over the Untreated Check (on a % dry matter basis): 7 % check
  Sodium, Percent Increase Over the Untreated Check (on a % dry matter basis): 8 % check
  Soluble protein, Percent Increase Over the Untreated Check (on a % dry matter basis): 27 % check
  Zinc, Percent Increase Over the Untreated Check (on a % dry matter basis): 53 % check
Basil 'Genovese' [2]; [14]
  ADF, Percent Increase Over the Untreated Check (on a % dry matter basis): 7 % check
  Calcium, Percent Increase Over the Untreated Check (on a % dry matter basis): 2 % check
  Copper, Percent Increase Over the Untreated Check (on a % dry matter basis): 0 % check
  Iron, Percent Increase Over the Untreated Check (on a % dry matter basis): 14 % check
  Magnesium, Percent Increase Over the Untreated Check (on a % dry matter basis): 0 % check
  Manganese, Percent Increase Over the Untreated Check (on a % dry matter basis): 61 % check
  NDF, Percent Increase Over the Untreated Check (on a % dry matter basis): −8 % check
  Phosphorous, Percent Increase Over the Untreated Check (on a % dry matter basis): 13 % check
  Potassium, Percent Increase Over the Untreated Check (on a % dry matter basis): −4 % check
  Protein, Percent Increase Over the Untreated Check (on a % dry matter basis): 13 % check
  Sodium, Percent Increase Over the Untreated Check (on a % dry matter basis): −8 % check
  Soluble protein, Percent Increase Over the Untreated Check (on a % dry matter basis): 89 % check
  Zinc, Percent Increase Over the Untreated Check (on a % dry matter basis): 34 % check
Basil 'Genovese' [3]; [15]
  Phytotoxicity Chlorosis: 3%
  Phytotoxicity General: 2%
  Phytotoxicity Stunting: 3%
Basil 'Genovese' [3]; [16]
  Phytotoxicity Chlorosis: 5%
  Phytotoxicity General: 2%
  Phytotoxicity Stunting: 5%
Basil 'Genovese' [3]; [17]
  Phytotoxicity Chlorosis: 7%
  Phytotoxicity General: 5%
  Phytotoxicity Stunting: 3%
Basil 'Genovese' [3]; [18]
  Phytotoxicity Chlorosis: 2%
  Phytotoxicity General: 5%
  Phytotoxicity Stunting: 0%
Basil 'Genovese' [3]; [19]
  Phytotoxicity Chlorosis: 2%
  Phytotoxicity General: 2%
  Phytotoxicity Stunting: 2%
Basil 'Genovese' [3]; [20]
  Phytotoxicity Chlorosis: 2%
  Phytotoxicity General: 0%
  Phytotoxicity Stunting: 0%
Kale 'Red Russian' [4]; [21]
  Alanine, Percent Increase over the Untreated Check (on a % dry matter basis): 5 % check
  Aspartic acid, Percent Increase over the Untreated Check (on a % dry matter basis): 6 % check
  Cysteine, Percent Increase over the Untreated Check (on a % dry matter basis): 6 % check
  Glutamic acid, Percent Increase over the Untreated Check (on a % dry matter basis): 11 % check
  Glycine, Percent Increase over the Untreated Check (on a % dry matter basis): 4 % check
  Iso-leucine, Percent Increase over the Untreated Check (on a % dry matter basis): 6 % check
  Leucine, Percent Increase over the Untreated Check (on a % dry matter basis): 4 % check
  Lysine, Percent Increase over the Untreated Check (on a % dry matter basis): 6 % check
  Methionine, Percent Increase over the Untreated Check (on a % dry matter basis): 4 % check
  Proline, Percent Increase over the Untreated Check (on a % dry matter basis): 8 % check
  Threonine, Percent Increase over the Untreated Check (on a % dry matter basis): 6 % check
  Total Amino acids, Percent Increase over the Untreated Check (on a % dry matter basis): 6 % check
  Total Protein, Percent Increase over the Untreated Check (on a % dry matter basis): 4 % check
  Valine, Percent Increase over the Untreated Check (on a % dry matter basis): 5 % check
Kale 'Red Russian' [4]; [11]
  ADF, Percent Increase Over the Untreated Check (on a % dry matter basis): 7 % check
  Calcium, Percent Increase Over the Untreated Check (on a % dry matter basis): −4 % check
  Copper, Percent Increase Over the Untreated Check (on a % dry matter basis): 0 % check
  Iron, Percent Increase Over the Untreated Check (on a % dry matter basis): −5 % check
  Magnesium, Percent Increase Over the Untreated Check (on a % dry matter basis): −3 % check
  Manganese, Percent Increase Over the Untreated Check (on a % dry matter basis): −2 % check
  NDF, Percent Increase Over the Untreated Check (on a % dry matter basis): −2 % check
  Phosphorous, Percent Increase Over the Untreated Check (on a % dry matter basis): 1 % check
  Potassium, Percent Increase Over the Untreated Check (on a % dry matter basis): −5 % check
  Sodium, Percent Increase Over the Untreated Check (on a % dry matter basis): 4 % check
  Zinc, Percent Increase Over the Untreated Check (on a % dry matter basis): −5 % check
Kale 'Red Russian' [4]; [12]
  ADF, Percent Increase Over the Untreated Check (on a % dry matter basis): −2 % check
  Calcium, Percent Increase Over the Untreated Check (on a % dry matter basis): −3 % check
  Copper, Percent Increase Over the Untreated Check (on a % dry matter basis): −6 % check
  Iron, Percent Increase Over the Untreated Check (on a % dry matter basis): −4 % check
  Magnesium, Percent Increase Over the Untreated Check (on a % dry matter basis): 0 % check
  Manganese, Percent Increase Over the Untreated Check (on a % dry matter basis): −7 % check
  NDF, Percent Increase Over the Untreated Check (on a % dry matter basis): −7 % check
  Phosphorous, Percent Increase Over the Untreated Check (on a % dry matter basis): 1 % check
  Potassium, Percent Increase Over the Untreated Check (on a % dry matter basis): −1 % check
  Sodium, Percent Increase Over the Untreated Check (on a % dry matter basis): 4 % check
  Zinc, Percent Increase Over the Untreated Check (on a % dry matter basis): −10 % check
Kale 'Red Russian' [4]; [22]
  Alanine, Percent Increase over the Untreated Check (on a % dry matter basis): −4 % check
  Aspartic acid, Percent Increase over the Untreated Check (on a % dry matter basis): −2 % check
  Cysteine, Percent Increase over the Untreated Check (on a % dry matter basis): −6 % check
  Glutamic acid, Percent Increase over the Untreated Check (on a % dry matter basis): −2 % check
  Glycine, Percent Increase over the Untreated Check (on a % dry matter basis): −7 % check
  Iso-leucine, Percent Increase over the Untreated Check (on a % dry matter basis): −3 % check
  Leucine, Percent Increase over the Untreated Check (on a % dry matter basis): −4 % check
  Lysine, Percent Increase over the Untreated Check (on a % dry matter basis): −1 % check
  Methionine, Percent Increase over the Untreated Check (on a % dry matter basis): −4 % check
  Proline, Percent Increase over the Untreated Check (on a % dry matter basis): 2 % check
  Threonine, Percent Increase over the Untreated Check (on a % dry matter basis): −1 % check
  Total Amino acids, Percent Increase over the Untreated Check (on a % dry matter basis): −2 % check
  Total Protein, Percent Increase over the Untreated Check (on a % dry matter basis): 0 % check
  Valine, Percent Increase over the Untreated Check (on a % dry matter basis): −2 % check
Basil ‘Genovese’; [14]
  Yield Fresh weight: 36.9 grams
Basil ‘Genovese’; rates g ai/ha: chlropyrifos 3370, chlorothalonil 7900, paclobutrazol 9.7, mepiquat-chloride 37, Isoxadifen 16, Napthalic anhydride 527, + NIS 0.25 % v/v
  Yield Fresh weight: 35.6 grams
